Test results from US10300155B2, “Alpha-synuclein ligands” (Washington University, priority 2015, dated 2019).
Several values for one entry are separate records, joined by “and”; a condition that tells them apart may be missing. Equal values may be shown once. Read-outs that look alike come from different tables or passages of the source.

Biological target: T1, α-synuclein fibrils (Homo sapiens, UniProt P37840)
T1 construct: made in house; host or cells: E. coli BL21(DE3)RIL
Assay: ThT competitive assay for α-synuclein fibrils (Table 1)
Type: binding
Settings: for EC50: α-synuclein fibrils
Method: Upon binding to amyloid fibrils, a peak at approximately 440 nm becomes dominant with the fluorescent emission maximum shifted to 480 nm. This is accompanied by a strong enhancement of the fluorescence.
α-Synuclein recombinant protein was produced in E. coli. […] Freshly transformed BL21 colonies were inoculated into 2 L baffled flasks containing 250 mL sterilized TB (1.2% bactotryptone, 2.4% yeast extract, 0.4% glycerol, 0.17 M KH2PO4, 0.72 M K2HPO4) with 50 μg/ml ampicillin, and incubated overnight at 37° C. with shaking.
To determine the concentration of fibrils, the reaction mixture (100 μL) was centrifuged at 18,000×g for 10 minutes to separate fibrils from monomer. The α-synuclein monomer and other soluble proteins in the supernatant were removed, and the fibril pellet was resuspended in 100 μL solution of Tris-HCl (20 mM) and NaCl (100 mM). This fibril suspension was used in a bicinchoninic acid (BCA) protein assay along with a bovine serum albumin (BSA) standard curve to determine the concentration of fibrils in the 72 hour fibril reaction mixture.
To prepare the fibrils for performing binding assays, the fibril reaction mixture prepared above was centrifuged at 18,000×g for 10 minutes.
Once the ThT-α-synuclein saturation binding curve and dissociation constant (Kd) were determined the competitive assay for determining the binding affinity of various test compounds was conducted. […] The mixture was incubated at room temperature for 60 minutes on the shaking plate. The fluorescent intensity for each cell was measured by the fluorescence reader at λex and λem. The Ki value for each compound was calculated by the corresponding inhibition curve.
The Ki values were derived from the EC50 values using the Cheng-Prusoff equation: Ki=EC50/(1+[radioligand]/Kd). See FIGS. 17.1-31.2 for the inhibition curves for each compound in the ThioT competitive binding assay.

[1] = average, read-out: Ki (nM) α-syn (avg)
[2] = individual determinations, read-out: Ki (nM) α-syn
[3] = average, read-out: EC50 (nM) EC50 (avg)
[4] = individual determinations, read-out: EC50 (nM) EC50

Structure (SMILES) | Ki [1] [nM] | Ki [2] | EC50 [3] [nM] | EC50 [4]
COc1ccc2c(c1)NC(=O)/C(=C/C=C/c1ccc([N+](=O)[O-])cc1)O2 [TZ-19-122] | 598 | 598 nM | – | –
COc1ccc2c(c1)NC(=O)/C(=C/C=C/c1ccc([N+](=O)[O-])cc1)S2 [TZ-19-124] | 254 | 254 nM | – | –
C(=C\c1ccccc1)/CN1c2ccccc2Sc2ccccc21 [TZ-19-126] | 3880 | 3880 nM | – | –
C(=C\c1ccccc1)/CN1c2ccccc2Oc2ccccc21 [TZ-19-136] | 3060 | 3060 nM | – | –
CN(C)c1ccc(/C=C/CN2c3ccccc3Oc3ccccc32)cc1 [TZ-19-138] | 3090 | 3090 nM | – | –
COc1ccc2c(c1)Oc1cc([N+](=O)[O-])ccc1N2C/C=C/c1ccc(N(C)C)cc1 [TZ-19-140] | 467 | 467 nM | – | –
COc1ccc2nc(/C=C/c3ccccc3)ccc2c1 [TZ-19-144] | 196 | 196 nM | – | –
COc1ccc2ccc(/C=C/c3ccccc3)nc2c1 [TZ-19-146] | 666 | 666 nM | – | –
COc1cccc2ccc(/C=C/c3ccccc3)nc12 [TZ-19-148] | 614 | 614 nM | – | –
COc1cccc2nc(/C=C/c3ccccc3)ccc12 [TZ-19-152] | 532 | 532 nM | – | –
COc1ccc2nc(/C=C/c3ccncc3)ccc2c1 [TZ-19-158] | 29.1 | 29.1 nM | – | –
COc1ccc(C(=O)C2CCN(C(=O)COC(=O)c3ccc(C(C)(C)C)cc3)CC2)cc1 [TZ-20-11] | 5090 | 5090 nM | – | –
COc1ccc(C2CCN(C(=O)COC(=O)c3ccc(C(C)(C)C)cc3)CC2)cc1 [TZ-20-23] | 109 | 109 nM | – | –
COC(=O)c1ccc(/C=C/c2ccncc2)cc1 [TZ-20-35] | 16.1 | 16.1 nM | – | –
COc1ccc(C2CCN(C(=O)c3ccc(/C=C/c4ccncc4)cc3)CC2)cc1 [TZ-20-39] | 2460 | 2460 nM | – | –
COc1ccc(C(=O)N2CCN(C(=O)c3ccc(/C=C/c4ccncc4)cc3)CC2)cc1 [TZ-20-45] | 181 | 181 nM | – | –
COc1ccc(C(=O)C2CCN(C(=O)c3ccc(/C=C/c4ccncc4)cc3)CC2)cc1 [TZ-20-51] | 184 | 184 nM | – | –
O=[N+]([O-])c1ccc(/C=C/c2ccncc2)cc1 [TZ-20-59] | 52.8 | 52.8 nM | – | –
O=C(OCCF)c1ccc(/C=C/c2ccncc2)cc1 [TZ-20-63] | 96 | 96 nM | – | –
CC(C)OC(=O)c1ccc(/C=C/c2ccncc2)cc1 [TZ-20-65] | 75.6 | 75.6 nM | – | –
CNC(=O)c1ccc(/C=C/c2ccncc2)cc1 [TZ-20-69] | 85.6 | 85.6 nM | – | –
Fc1ccc(/C=C/c2ccncc2)cc1 [TZ-20-73] | 432 | 432 nM | – | –
FC(F)(F)c1ccc(/C=C/c2ccncc2)cc1 [TZ-20-75] | 36.8 | 36.8 nM | – | –

Structure (SMILES) | Ki [1] [nM] | Ki [2] | EC50 [3] [nM] | EC50 [4]
COC(=O)C(Cc1ccc(O)cc1)NC(=O)c1ccc(/C=C/c2ccncc2)cc1 (centres unmarked) [TZ-20-77] | 523 | 523 nM | – | –
O=C(NCCF)c1ccc(/C=C/c2ccncc2)cc1 [TZ-20-79] | 115 | 115 nM | – | –
COc1ccccc1NC(=O)c1ccc(/C=C/c2ccncc2)cc1 [TZ-20-81] | 150 | 150 nM | – | –
COc1ccc(NC(=O)c2ccc(/C=C/c3ccncc3)cc2)cc1 [TZ-20-83] | – | 19.1 nM | – | –
CNc1ccc(/C=C/c2ccncc2)cc1 [TZ-20-97] | – | 33.9 nM | – | –
COC(=O)c1ccc(/C=C/C=C/c2ccncc2)cc1 [TZ-20-111] | – | 56 nM | – | –
COc1ccc(/C=C/c2cnccn2)cc1 [TZ-22-1-2] | 31.9 | 31.9 nM | – | –
COc1ccc(/C=C/c2ccncn2)cc1 [TZ-22-19-1] | 154 | 154 nM | – | –
COc1ccc(/C=C/c2cccnn2)cc1 [TZ-22-23-1] | 1140 | 1140 nM | – | –
COc1ccc(/C=C/c2ncccn2)cc1 [TZ-22-31-1] | 2770 | 2770 nM | – | –
CN(C)c1ccc(/C=C/c2cnccn2)cc1 [TZ-22-35-1] | 698 | 698 nM | – | –
COc1ccc(/C=C/c2cnccn2)cc1OC [TZ-22-37-1] | 213 | 213 nM | – | –
Brc1ccc(/C=C/c2cnccn2)cc1 [TZ-22-47-1] | 76.7 | 76.7 nM | – | –
COc1cccc(/C=C/c2cnccn2)c1 [TZ-22-49-1] | 117 | 117 nM | – | –
COc1ccc2ccc(/C=C/c3ccncc3)nc2c1 [TZ-23-02] | 71.8 | 71.8 nM | – | –
COc1cccc2nc(/C=C/c3ccncc3)ccc12 [TZ-23-06] | 96.3 | 96.3 nM | – | –
COc1ccc2nc(/C=C/c3cnccn3)ccc2c1 [TZ-23-12] | 36.4 | 36.4 nM | – | –
COc1ccc2ccc(/C=C/c3cnccn3)nc2c1 [TZ-23-16] | 3180 | 3180 nM | – | –
COc1cc(/C=C/c2cnccn2)nc2ccccc12 [TZ-23-20] | 3030 | 3030 nM | – | –
O=C(Nc1ccc(Br)cc1)c1ccc(/C=C/c2ccncc2)cc1 [TZ-23-52] | 10.4 | – | – | –
O=C(Nc1ccc(I)cc1)c1ccc(/C=C/c2ccncc2)cc1 [TZ-23-56] | 19.8 | 19.8 nM | – | –
O=C(Nc1ccc(OCCF)cc1)c1ccc(/C=C/c2ccncc2)cc1 [TZ-23-88] | 32.1 | 24.3 nM and 40 nM | 83.8 | 63.5 nM and 104 nM
Fc1ccc(-c2ccc(-c3nc4cc(Br)ccc4o3)cc2C(F)(F)F)cn1 [TZ-31-108] | 1540 | 1540 nM | 4030 | 4030 nM

Structure (SMILES) | Ki [1] [nM] | Ki [2] | EC50 [3] [nM] | EC50 [4]
OCc1ccc2oc(-c3ccc(-c4ccc(F)nc4)c(C(F)(F)F)c3)nc2c1 [TZ-31-123] | 31400 | 31400 nM | 82000 | 82000 nM
COC(=O)c1ccc2oc(-c3ccc(-c4ccc(F)nc4)c(C(F)(F)F)c3)nc2c1 [TZ-31-125] | 1560 | 1560 nM | 4090 | 4090 nM
COc1ccc(/C=C/c2ccoc2)cc1 [TZ-34-27] | 551 | 1140 nM and 201 nM and 310 nM | 1440 | 2990 nM and 527 nM and 812 nM
COc1ccc(/C=C/c2cncs2)cc1 [TZ-34-35] | 323 | 313 nM and 333 nM | 845 | 819 nM and 871 nM
COc1ccc(/C=C/c2cc(C)cs2)cc1 [TZ-34-38] | 252 | 387 nM and 114 nM and 256 nM | 661 | 1010 nM and 299 nM and 671 nM
COc1ccc(/C=C/c2cc(Br)cs2)cc1 [TZ-34-39] | 256 | 233 nM and 278 nM | 668 | 609 nM and 727 nM
COc1ccc(/C=C/c2ccc(-c3cccs3)s2)cc1 [TZ-34-40] | 450 | 500 nM and 400 nM | 1180 | 1310 nM and 1050 nM
COc1ccc(/C=C/c2ccc(C=O)s2)cc1 [TZ-34-41] | 148 | 148 nM | 387 | 387 nM
COc1ccc(/C=C/c2ccc(CO)s2)cc1 [TZ-34-46] | 108 | 105 nM and 110 nM | 281 | 275 nM and 287 nM
Brc1ccc(/C=C/c2cccs2)cc1 [TZ-34-55] | 198 | 198 nM | 519 | 519 nM
Brc1ccc(/C=C/c2ccsc2)cc1 [TZ-34-58] | 319 | 319 nM | 834 | 834 nM
Fc1ccc(/C=C/c2ccsc2)cc1 [TZ-34-59] | 860 | 860 nM | 2250 | 2250 nM
Fc1ccc(/C=C/c2cccs2)cc1 [TZ-34-60] | 1000 | 1000 nM | 1000 | 1000 nM
Ic1ccc(/C=C/c2cccs2)cc1 [TZ-34-63] | 80 | 80 nM | 208 | 208 nM
Ic1ccc(/C=C/c2ccsc2)cc1 [TZ-34-64] | 115 | 115 nM | 300 | 300 nM
O=[N+]([O-])c1ccc(/C=C/c2cccs2)cc1 [TZ-34-74] | 55 | 55 nM | 145 | 145 nM
Ic1ccc(/C=C/c2ccoc2)cc1 [TZ-34-86] | 134 | 117 nM and 152 nM | 352 | 306 nM and 398 nM
COc1ccc(/C=C/c2cc3ccccc3s2)cc1 [TZ-34-87] | 884 | 884 nM | 2310 | 2310 nM
COc1ccc(/C=C/c2ccc(C(=O)NCCF)s2)cc1 [TZ-34-94] | 160 | 223 nM and 61 nM and 197 nM | 419 | 583 nM and 160 nM and 514 nM
CN(C)c1ccc(/C=C/C=C/c2cccs2)cc1 [TZ-34-97] | 69 | 69 nM | 180 | 180 nM
C(=C\c1cccs1)/c1ccncc1 [TZ-34-100] | 604 | 604 nM | 1580 | 1580 nM
